{
  "source": "patent US20250213646A1",
  "about": "“BIOACTIVE WALNUT PEPTIDES AND COMPOSITIONS FOR TREATING SKIN” (L'OREAL, priority 2024, published 2025)",
  "type_in_all_cases": "cell-based",
  "key": {"[1]": {"tested_on": "Adult Normal Human Epidermal Keratinocytes", "assay": "Differential gene expression (RNA sequencing) in keratinocytes treated with walnut peptides", "settings": "100 uM or 500 uM peptide in culture media", "description": "Peptide I, II, and III were investigated for their ability to influence gene expression at concentration at 100 μM abd 500 μM for cells and 250 μM for reconstructed human epidermis (RHE).\nAdult Normal Human Epidermal Keratinocytes (Lot 80819221, Passage 3, ATCC) were expanded and seeded into a 6-well plate at a density of 300,000 cells/well. Cells were grown in Dermal Cell Basal Medium (ATCC PCS-200-030) supplemented with one Keratinocyte Growth Kit (ATCC PCS-200-040). Cells attached overnight and then culture media was aspirated and replaced with media containing either 100 uM or 500 uM of Peptide I, Peptide II, or Peptide III. Cells were cultured for […] with treatment with renewal of treatment medium every other day with the exception of weekends. Following the 7-day incubation period, cells were trypsinized and the cell pellet was snap-frozen using liquid nitrogen. Cells then underwent RNA sequencing. The log 2 fold change for each treatment group compared to untreated control samples for differentially expressed genes (DEGs) related to skin barrier were analyzed. Fold change was plotted via heatmap to show upregulation or downregulation of these genes. Microsoft Excel and GraphPad Prism were used for additional analysis and data presentation. The results are shown in the heatmap of FIG. 1."}, "[2]": {"tested_on": "transglutaminase 1 (TGM1)", "assay": "Barrier renewal, microneedle ex vivo skin model: TGM1 immunohistochemistry", "settings": "500 μM of each peptide in media; 7-day culture; microneedled human skin explants", "description": "(§1) Fresh post-abdominoplasty normal human skin samples were acquired from BioIVT Inc. (Westbury, NY). Tissue was defatted and cleaned of blood residue. Tissue was then subjected to treatment using a microneedling pen (36-pin needles, Dr. Pen A6 Cartridges Tips, Dr. Pen Inc., San Jose, CA, USA) with a needle length of 1.5 mm. Tissue was subjected to 5 passes of the microneedle. Following treatment, 1.2 cm diameter skin biopsies were created and cultured at the air-liquid interface. Skin explants not subjected to microneedling served as the untreated control group. Control and microneedle control samples were cultured in Dulbecco's Modified Eagle's Medium (650 μL per well, DMEM with 10% fetal bovine serum and 1% penicillin-streptomycin) at 37° C. and 5% CO2. Treated microneedle samples with the peptides were cultured in DMEM with 10% fetal bovine serum, 1% penicillin-streptomycin. 500 uM of each peptide was dissolved into the media. Treatment medium was changed every other day with the exception of weekends. Following a 7-day culture period, all biopsies were processed for histological and immunohistochemical analysis. Skin explants were processed for hematoxylin and eosin (H&E) staining and immunohistochemical staining against filaggrin (FLG) and transglutaminase 1 (TGM1) according to standard protocol (HistoWiz, Brooklyn, NY)."}, "[3]": {"tested_on": "normal human skin samples", "assay": "Ex vivo chronic inflammation model (CSC): H&E histology", "settings": "500 μM of each peptide; cell stimulation cocktail (CSC); 7-day culture; human skin explants", "description": "Fresh post-abdominoplasty normal human skin samples were acquired from BioIVT Inc. (Westbury, NY). Tissue was defatted and cleaned of blood residue. 1.2 cm diameter skin biopsies were created and cultured at the air-liquid interface. Skin explants not subjected to the inflammatory stimulant served as the untreated control group. Control samples were cultured in Dulbecco's Modified Eagle's Medium (650 μL per well, DMEM with 10% fetal bovine serum and 1% penicillin-streptomycin) at 37° C. and 5% CO2. Treated microneedle samples with the peptides were cultured in DMEM with 10% fetal bovine serum, 1% penicillin-streptomycin with a 2× dilution of cell stimulation cocktail (CSC) 500×. Samples treated with the peptide contained 500 μM of each peptide dissolved into the media. Fresh stimulants were made each time replenishing the treatment medium every other day with the exception of weekends. Following a 7-day culture period, all biopsies were processed for histological and immunohistochemical analysis. Skin explants were processed for hematoxylin and eosin (H&E) staining and immunohistochemical staining against filaggrin (FLG) and transglutaminase 1 (TGM1) according to standard protocol (HistoWiz, Brooklyn, NY)."}, "filaggrin (FLG)": {"tested_on": "filaggrin (FLG)", "assay": "Barrier renewal, microneedle ex vivo skin model: filaggrin immunohistochemistry", "settings": "500 μM of each peptide in media; 7-day culture; microneedled human skin explants", "description": "as §1"}},
  "data": [
    {"substance": "Tyr-Val-Leu-Leu-Pro-Ser-Pro-Lys (YVLLPSPK) (printed: Tyr-Val-Leu-Leu-Pro-Ser-Pro-Lys) [Peptide II]", "values": [
      {"measurement": "differentially expressed genes (DEGs) related to skin barrier, log 2 fold change compared to untreated control (FIG. 1)", "setting": "[1]", "value": "strong benefits to the skin barrier on a cellular level at both concentrations tested"},
      {"measurement": "expression and localization of TGM1 after microneedling", "setting": "[2]", "value": "increase the expression of TGM1 and localization"},
      {"measurement": "epidermal stress, spongiosis/vacuole formation induced by CSC (H&E histology, FIG. 4)", "setting": "[3]", "value": "ameliorated"},
      {"measurement": "filaggrin expression after microneedling", "setting": "filaggrin (FLG)", "value": "increase filaggrin expression"}
    ]},
    {"substance": "Thr-Trp-Leu-Pro-Leu-Pro-Arg (TWLPLPR) (printed: Thr-Trp-Leu-Pro-Leu-Pro-Arg) [Peptide I]", "values": [
      {"measurement": "differentially expressed genes (DEGs) related to skin barrier, log 2 fold change compared to untreated control (FIG. 1)", "setting": "[1]", "value": "showed an influence at the higher concentration"},
      {"measurement": "expression and localization of TGM1 after microneedling", "setting": "[2]", "value": "increase the expression of TGM1 and localization"},
      {"measurement": "epidermal stress, spongiosis/vacuole formation induced by CSC (H&E histology, FIG. 4)", "setting": "[3]", "value": "ameliorated"},
      {"measurement": "filaggrin expression after microneedling", "setting": "filaggrin (FLG)", "value": "increase filaggrin expression"}
    ]},
    {"substance": "Lys-Val-Pro-Pro-Leu-Leu-Tyr (KVPPLLY) (printed: Lys-Val-Pro-Pro-Leu-Leu-Tyr) [Peptide III]", "values": [
      {"measurement": "differentially expressed genes (DEGs) related to skin barrier, log 2 fold change compared to untreated control (FIG. 1)", "setting": "[1]", "value": "strong benefits to the skin barrier on a cellular level at both concentrations tested"},
      {"measurement": "expression and localization of TGM1 after microneedling", "setting": "[2]", "value": "increase the expression of TGM1 and localization"},
      {"measurement": "epidermal stress, spongiosis/vacuole formation induced by CSC (H&E histology, FIG. 4)", "setting": "[3]", "value": "ameliorated"},
      {"measurement": "filaggrin expression after microneedling", "setting": "filaggrin (FLG)", "value": "increase filaggrin expression"}
    ]}
  ]
}
